# Experimental data published in ChEMBL document CHEMBL3393036, “Tetra-substituted pyridinylimidazoles as dual inhibitors of p38α mitogen-activated protein kinase and c-Jun N-terminal kinase 3 for potential treatment of neurodegenerative diseases” (J Med Chem, 2015).
# Target: MAP kinase-activated protein kinase 2 (Homo sapiens) (UniProt P49137)
# Experiment: Inhibition of MK2 (unknown origin) at 5.5 uM by Caliper Mobility Shift Assay
# Sequence of MAP kinase-activated protein kinase 2 (Homo sapiens) (P49137 whole entry, looked up): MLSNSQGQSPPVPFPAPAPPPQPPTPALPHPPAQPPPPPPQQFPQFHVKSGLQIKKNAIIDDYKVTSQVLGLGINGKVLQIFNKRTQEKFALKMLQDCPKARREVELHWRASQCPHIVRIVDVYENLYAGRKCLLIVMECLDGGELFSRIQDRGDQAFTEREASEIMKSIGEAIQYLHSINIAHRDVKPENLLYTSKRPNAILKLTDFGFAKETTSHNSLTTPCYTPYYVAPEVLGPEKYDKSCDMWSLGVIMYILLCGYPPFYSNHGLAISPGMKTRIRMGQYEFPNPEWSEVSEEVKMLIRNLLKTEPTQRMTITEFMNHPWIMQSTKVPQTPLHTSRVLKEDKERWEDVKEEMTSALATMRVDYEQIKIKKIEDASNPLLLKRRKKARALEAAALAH
row,SMILES,inhibition
1,COC(Cn1c(SC2CCC(C(=O)O)CC2O)nc(-c2ccc(F)cc2)c1-c1ccnc(NC(C)=O)c1)OC (stereo not given),< 50%
2,CC(=O)Nc1cc(-c2c(-c3ccc(F)cc3)nc(S/C=C\C(=O)O)n2C2CCCCC2)ccn1,< 50%

# Target: Serine/threonine-protein kinase WNK1 (Homo sapiens) (UniProt Q9H4A3)
# Experiment: Inhibition of WNK1 (unknown origin) at 5.5 uM by Caliper Mobility Shift Assay
row,SMILES,inhibition
1,COC(Cn1c(SC2CCC(C(=O)O)CC2O)nc(-c2ccc(F)cc2)c1-c1ccnc(NC(C)=O)c1)OC (stereo not given),< 50%
2,CC(=O)Nc1cc(-c2c(-c3ccc(F)cc3)nc(S/C=C\C(=O)O)n2C2CCCCC2)ccn1,< 50%

# Target: T1, TGF-beta-activated kinase 1 and MAP3K7-binding protein 1 (Homo sapiens) (UniProt Q15750)
# T1 sequence (whole entry): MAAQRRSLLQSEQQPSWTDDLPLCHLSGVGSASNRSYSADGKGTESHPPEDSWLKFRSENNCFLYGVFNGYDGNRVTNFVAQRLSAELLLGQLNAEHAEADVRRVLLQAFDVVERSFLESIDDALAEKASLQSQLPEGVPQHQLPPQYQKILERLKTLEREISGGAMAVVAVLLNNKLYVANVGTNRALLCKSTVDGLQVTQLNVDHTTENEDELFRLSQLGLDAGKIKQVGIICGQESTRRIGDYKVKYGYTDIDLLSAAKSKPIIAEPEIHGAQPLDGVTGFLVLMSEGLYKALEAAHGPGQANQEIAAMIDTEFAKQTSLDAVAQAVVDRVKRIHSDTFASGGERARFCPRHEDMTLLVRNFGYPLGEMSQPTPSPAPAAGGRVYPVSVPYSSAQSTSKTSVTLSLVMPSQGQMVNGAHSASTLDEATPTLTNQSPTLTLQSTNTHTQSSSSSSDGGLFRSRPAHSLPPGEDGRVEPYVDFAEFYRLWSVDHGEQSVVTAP
# Experiment: Inhibition of MAP3K7-TAB1 (unknown origin) at 5.5 uM by Caliper Mobility Shift Assay
row,SMILES,inhibition
1,COC(Cn1c(SC2CCC(C(=O)O)CC2O)nc(-c2ccc(F)cc2)c1-c1ccnc(NC(C)=O)c1)OC (stereo not given),< 50%
2,CC(=O)Nc1cc(-c2c(-c3ccc(F)cc3)nc(S/C=C\C(=O)O)n2C2CCCCC2)ccn1,< 50%

# Target: Casein kinase I isoform gamma-3 (Homo sapiens) (UniProt Q9Y6M4)
# Experiment: Inhibition of CSNK1G3 (CK1) (unknown origin) at 5.5 uM by Caliper Mobility Shift Assay
row,SMILES,inhibition
1,COC(Cn1c(SC2CCC(C(=O)O)CC2O)nc(-c2ccc(F)cc2)c1-c1ccnc(NC(C)=O)c1)OC (stereo not given),< 50%
2,CC(=O)Nc1cc(-c2c(-c3ccc(F)cc3)nc(S/C=C\C(=O)O)n2C2CCCCC2)ccn1,< 50%

# Target: Protein kinase C theta type (Homo sapiens) (UniProt Q04759)
# Experiment: Inhibition of PRKCQ (unknown origin) at 5.5 uM by Caliper Mobility Shift Assay
row,SMILES,inhibition
1,COC(Cn1c(SC2CCC(C(=O)O)CC2O)nc(-c2ccc(F)cc2)c1-c1ccnc(NC(C)=O)c1)OC (stereo not given),< 50%
2,CC(=O)Nc1cc(-c2c(-c3ccc(F)cc3)nc(S/C=C\C(=O)O)n2C2CCCCC2)ccn1,< 50%

# Target: Tyrosine-protein kinase SYK (Homo sapiens) (UniProt P43405)
# Experiment: Inhibition of SYK (unknown origin) at 5.5 uM by Caliper Mobility Shift Assay
row,SMILES,inhibition
1,COC(Cn1c(SC2CCC(C(=O)O)CC2O)nc(-c2ccc(F)cc2)c1-c1ccnc(NC(C)=O)c1)OC (stereo not given),< 50%
2,CC(=O)Nc1cc(-c2c(-c3ccc(F)cc3)nc(S/C=C\C(=O)O)n2C2CCCCC2)ccn1,< 50%

# Target: Tyrosine-protein kinase BTK (Homo sapiens) (UniProt Q06187)
# Experiment: Inhibition of BTK (unknown origin) at 5.5 uM by Caliper Mobility Shift Assay
row,SMILES,inhibition
1,COC(Cn1c(SC2CCC(C(=O)O)CC2O)nc(-c2ccc(F)cc2)c1-c1ccnc(NC(C)=O)c1)OC (stereo not given),< 50%
2,CC(=O)Nc1cc(-c2c(-c3ccc(F)cc3)nc(S/C=C\C(=O)O)n2C2CCCCC2)ccn1,< 50%

# Target: T2, Ephrin type-B receptor 4 (Homo sapiens) (UniProt P54760)
# T2 sequence (whole entry): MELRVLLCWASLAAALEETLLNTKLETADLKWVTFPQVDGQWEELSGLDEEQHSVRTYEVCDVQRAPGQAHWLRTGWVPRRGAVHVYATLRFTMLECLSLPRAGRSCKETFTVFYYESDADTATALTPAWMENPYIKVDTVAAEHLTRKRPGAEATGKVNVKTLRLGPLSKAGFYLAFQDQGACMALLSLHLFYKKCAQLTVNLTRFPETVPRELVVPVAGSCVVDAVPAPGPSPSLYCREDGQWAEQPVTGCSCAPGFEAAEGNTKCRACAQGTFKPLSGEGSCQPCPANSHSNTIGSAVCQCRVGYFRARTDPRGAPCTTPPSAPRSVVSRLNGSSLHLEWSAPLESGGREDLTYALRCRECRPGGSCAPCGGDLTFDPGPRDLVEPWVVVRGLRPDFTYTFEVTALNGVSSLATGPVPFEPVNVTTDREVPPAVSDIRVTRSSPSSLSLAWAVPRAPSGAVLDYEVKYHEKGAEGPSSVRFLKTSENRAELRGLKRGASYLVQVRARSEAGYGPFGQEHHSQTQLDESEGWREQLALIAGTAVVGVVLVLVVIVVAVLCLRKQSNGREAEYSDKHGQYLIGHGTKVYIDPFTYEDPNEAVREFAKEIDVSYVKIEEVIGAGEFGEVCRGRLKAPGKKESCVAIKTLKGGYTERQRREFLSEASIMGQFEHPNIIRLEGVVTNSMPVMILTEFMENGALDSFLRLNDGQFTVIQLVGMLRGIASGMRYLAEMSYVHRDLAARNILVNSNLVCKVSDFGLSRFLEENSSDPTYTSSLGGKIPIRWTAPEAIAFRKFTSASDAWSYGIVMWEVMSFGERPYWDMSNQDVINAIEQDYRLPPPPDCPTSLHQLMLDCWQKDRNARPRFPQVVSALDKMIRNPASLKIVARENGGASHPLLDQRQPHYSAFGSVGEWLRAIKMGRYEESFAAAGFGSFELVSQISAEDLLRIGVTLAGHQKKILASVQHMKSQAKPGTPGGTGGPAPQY
# Experiment: Inhibition of EPHB4 (unknown origin) at 5.5 uM by Caliper Mobility Shift Assay
row,SMILES,inhibition
1,COC(Cn1c(SC2CCC(C(=O)O)CC2O)nc(-c2ccc(F)cc2)c1-c1ccnc(NC(C)=O)c1)OC (stereo not given),< 50%
2,CC(=O)Nc1cc(-c2c(-c3ccc(F)cc3)nc(S/C=C\C(=O)O)n2C2CCCCC2)ccn1,< 50%

# Target: Mitogen-activated protein kinase 9 (Homo sapiens) (UniProt P45984)
# Experiment: Inhibition of JNK2 (unknown origin) at 5.5 uM by Caliper Mobility Shift Assay
# Sequence of Mitogen-activated protein kinase 9 (Homo sapiens) (P45984 whole entry, looked up): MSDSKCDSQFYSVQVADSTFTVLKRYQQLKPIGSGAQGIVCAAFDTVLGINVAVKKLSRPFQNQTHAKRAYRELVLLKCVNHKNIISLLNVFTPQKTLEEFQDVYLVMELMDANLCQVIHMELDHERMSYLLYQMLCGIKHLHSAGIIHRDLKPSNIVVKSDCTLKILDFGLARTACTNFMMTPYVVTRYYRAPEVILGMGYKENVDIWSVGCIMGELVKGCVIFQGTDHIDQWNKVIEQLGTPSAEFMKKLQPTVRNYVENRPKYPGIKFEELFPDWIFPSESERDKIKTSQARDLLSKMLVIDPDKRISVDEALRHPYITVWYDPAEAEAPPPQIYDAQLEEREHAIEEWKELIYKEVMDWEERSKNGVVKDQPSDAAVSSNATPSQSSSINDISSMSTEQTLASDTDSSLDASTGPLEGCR
row,SMILES,inhibition
1,COC(Cn1c(SC2CCC(C(=O)O)CC2O)nc(-c2ccc(F)cc2)c1-c1ccnc(NC(C)=O)c1)OC (stereo not given),< 50%
2,CC(=O)Nc1cc(-c2c(-c3ccc(F)cc3)nc(S/C=C\C(=O)O)n2C2CCCCC2)ccn1,< 50%

# Target: Mitogen-activated protein kinase kinase kinase 8 (Homo sapiens) (UniProt P41279)
# Experiment: Inhibition of MAP3K8 (unknown origin) at 5.5 uM by Caliper Mobility Shift Assay
row,SMILES,inhibition
1,COC(Cn1c(SC2CCC(C(=O)O)CC2O)nc(-c2ccc(F)cc2)c1-c1ccnc(NC(C)=O)c1)OC (stereo not given),< 50%
2,CC(=O)Nc1cc(-c2c(-c3ccc(F)cc3)nc(S/C=C\C(=O)O)n2C2CCCCC2)ccn1,< 50%

# Organism: Homo sapiens
# Experiment: Selectivity ratio of IC50 for JNK3 (unknown origin) to IC50 for p38alpha (unknown origin)
row,SMILES,Ratio IC50
1,COC(Cn1c(SC2CCC(C(=O)O)CC2O)nc(-c2ccc(F)cc2)c1-c1ccnc(NC(C)=O)c1)OC (stereo not given),14.9
2,CC(=O)Nc1cc(-c2c(-c3ccc(F)cc3)nc(S/C=C\C(=O)O)n2C2CCCCC2)ccn1,0.8

# Target: Mitogen-activated protein kinase 14 (Homo sapiens, UniProt Q16539)
# Experiment: Inhibition of p38alpha (unknown origin) assessed as phosphorylation of ATF-2 by ELISA
row,SMILES,IC50
1,COC(Cn1c(SC2CCC(C(=O)O)CC2O)nc(-c2ccc(F)cc2)c1-c1ccnc(NC(C)=O)c1)OC (stereo not given),135 nM
2,CC(=O)Nc1cc(-c2c(-c3ccc(F)cc3)nc(S/C=C\C(=O)O)n2C2CCCCC2)ccn1,165 nM

# Target: Tyrosine-protein kinase Lyn (Homo sapiens) (UniProt P07948)
# Experiment: Inhibition of LYN (unknown origin) at 5.5 uM by Caliper Mobility Shift Assay
# Sequence of Tyrosine-protein kinase Lyn (Homo sapiens) (P07948 2-512 limits assumed): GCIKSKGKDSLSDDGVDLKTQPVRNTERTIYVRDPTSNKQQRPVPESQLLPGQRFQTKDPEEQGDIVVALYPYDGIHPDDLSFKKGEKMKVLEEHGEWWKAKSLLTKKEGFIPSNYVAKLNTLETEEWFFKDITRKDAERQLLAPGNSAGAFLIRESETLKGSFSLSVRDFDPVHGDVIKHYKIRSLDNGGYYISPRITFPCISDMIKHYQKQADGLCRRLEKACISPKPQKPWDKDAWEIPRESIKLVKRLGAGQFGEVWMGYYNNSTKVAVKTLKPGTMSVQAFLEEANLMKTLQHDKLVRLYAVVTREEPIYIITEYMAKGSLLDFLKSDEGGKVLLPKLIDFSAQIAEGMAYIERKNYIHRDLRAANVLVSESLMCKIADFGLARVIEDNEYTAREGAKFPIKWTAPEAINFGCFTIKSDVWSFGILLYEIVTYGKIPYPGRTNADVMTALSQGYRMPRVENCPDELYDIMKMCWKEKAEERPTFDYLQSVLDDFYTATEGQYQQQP
row,SMILES,inhibition
1,COC(Cn1c(SC2CCC(C(=O)O)CC2O)nc(-c2ccc(F)cc2)c1-c1ccnc(NC(C)=O)c1)OC (stereo not given),< 50%
2,CC(=O)Nc1cc(-c2c(-c3ccc(F)cc3)nc(S/C=C\C(=O)O)n2C2CCCCC2)ccn1,< 50%

# Target: Proto-oncogene tyrosine-protein kinase Src (Homo sapiens) (UniProt P12931)
# Experiment: Inhibition of cSRC (unknown origin) at 5.5 uM by Caliper Mobility Shift Assay
# Sequence of Proto-oncogene tyrosine-protein kinase Src (Homo sapiens) (P12931 2-536 limits assumed): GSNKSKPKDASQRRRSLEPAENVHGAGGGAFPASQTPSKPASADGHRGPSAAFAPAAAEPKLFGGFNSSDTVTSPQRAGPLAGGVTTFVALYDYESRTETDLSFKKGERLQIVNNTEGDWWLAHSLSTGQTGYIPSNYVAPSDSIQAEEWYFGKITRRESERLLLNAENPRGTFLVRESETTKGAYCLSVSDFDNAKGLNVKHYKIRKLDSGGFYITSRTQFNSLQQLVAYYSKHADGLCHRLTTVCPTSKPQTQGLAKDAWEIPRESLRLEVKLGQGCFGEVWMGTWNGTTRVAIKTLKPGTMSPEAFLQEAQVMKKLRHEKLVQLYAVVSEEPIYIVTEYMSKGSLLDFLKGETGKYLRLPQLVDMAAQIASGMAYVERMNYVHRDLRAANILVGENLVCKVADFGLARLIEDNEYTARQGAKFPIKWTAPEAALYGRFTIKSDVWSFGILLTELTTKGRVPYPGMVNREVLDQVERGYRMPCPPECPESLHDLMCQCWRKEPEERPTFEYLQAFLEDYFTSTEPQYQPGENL
row,SMILES,inhibition
1,COC(Cn1c(SC2CCC(C(=O)O)CC2O)nc(-c2ccc(F)cc2)c1-c1ccnc(NC(C)=O)c1)OC (stereo not given),< 50%
2,CC(=O)Nc1cc(-c2c(-c3ccc(F)cc3)nc(S/C=C\C(=O)O)n2C2CCCCC2)ccn1,< 50%

# Target: Serine/threonine-protein kinase PAK 2 (Homo sapiens) (UniProt Q13177)
# Experiment: Inhibition of PAK2 (unknown origin) at 5.5 uM by Caliper Mobility Shift Assay
# Sequence of Serine/threonine-protein kinase PAK 2 (Homo sapiens) (Q13177 whole entry): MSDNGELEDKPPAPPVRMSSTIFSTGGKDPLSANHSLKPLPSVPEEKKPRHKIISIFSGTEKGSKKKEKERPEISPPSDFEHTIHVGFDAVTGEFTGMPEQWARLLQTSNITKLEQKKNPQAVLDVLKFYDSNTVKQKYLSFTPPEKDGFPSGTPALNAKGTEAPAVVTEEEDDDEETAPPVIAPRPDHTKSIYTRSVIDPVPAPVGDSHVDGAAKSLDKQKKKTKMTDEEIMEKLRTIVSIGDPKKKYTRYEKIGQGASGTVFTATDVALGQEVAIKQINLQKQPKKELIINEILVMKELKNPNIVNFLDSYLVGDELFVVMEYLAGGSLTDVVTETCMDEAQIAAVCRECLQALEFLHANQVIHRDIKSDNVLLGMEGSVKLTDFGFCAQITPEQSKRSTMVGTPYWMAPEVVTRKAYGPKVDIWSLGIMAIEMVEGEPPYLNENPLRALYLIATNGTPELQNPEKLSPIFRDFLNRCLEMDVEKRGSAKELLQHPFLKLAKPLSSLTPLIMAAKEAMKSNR
row,SMILES,inhibition
1,COC(Cn1c(SC2CCC(C(=O)O)CC2O)nc(-c2ccc(F)cc2)c1-c1ccnc(NC(C)=O)c1)OC (stereo not given),< 50%
2,CC(=O)Nc1cc(-c2c(-c3ccc(F)cc3)nc(S/C=C\C(=O)O)n2C2CCCCC2)ccn1,< 50%

# Target: Rho-associated protein kinase 2 (Homo sapiens) (UniProt O75116)
# Experiment: Inhibition of ROCK2 (unknown origin) at 5.5 uM by Caliper Mobility Shift Assay
row,SMILES,inhibition
1,COC(Cn1c(SC2CCC(C(=O)O)CC2O)nc(-c2ccc(F)cc2)c1-c1ccnc(NC(C)=O)c1)OC (stereo not given),< 50%
2,CC(=O)Nc1cc(-c2c(-c3ccc(F)cc3)nc(S/C=C\C(=O)O)n2C2CCCCC2)ccn1,< 50%

# Target: Vascular endothelial growth factor receptor 2 (Homo sapiens) (UniProt P35968)
# Experiment: Inhibition of KDR (unknown origin) at 5.5 uM by Caliper Mobility Shift Assay
# Sequence of Vascular endothelial growth factor receptor 2 (Homo sapiens) (P35968 whole entry): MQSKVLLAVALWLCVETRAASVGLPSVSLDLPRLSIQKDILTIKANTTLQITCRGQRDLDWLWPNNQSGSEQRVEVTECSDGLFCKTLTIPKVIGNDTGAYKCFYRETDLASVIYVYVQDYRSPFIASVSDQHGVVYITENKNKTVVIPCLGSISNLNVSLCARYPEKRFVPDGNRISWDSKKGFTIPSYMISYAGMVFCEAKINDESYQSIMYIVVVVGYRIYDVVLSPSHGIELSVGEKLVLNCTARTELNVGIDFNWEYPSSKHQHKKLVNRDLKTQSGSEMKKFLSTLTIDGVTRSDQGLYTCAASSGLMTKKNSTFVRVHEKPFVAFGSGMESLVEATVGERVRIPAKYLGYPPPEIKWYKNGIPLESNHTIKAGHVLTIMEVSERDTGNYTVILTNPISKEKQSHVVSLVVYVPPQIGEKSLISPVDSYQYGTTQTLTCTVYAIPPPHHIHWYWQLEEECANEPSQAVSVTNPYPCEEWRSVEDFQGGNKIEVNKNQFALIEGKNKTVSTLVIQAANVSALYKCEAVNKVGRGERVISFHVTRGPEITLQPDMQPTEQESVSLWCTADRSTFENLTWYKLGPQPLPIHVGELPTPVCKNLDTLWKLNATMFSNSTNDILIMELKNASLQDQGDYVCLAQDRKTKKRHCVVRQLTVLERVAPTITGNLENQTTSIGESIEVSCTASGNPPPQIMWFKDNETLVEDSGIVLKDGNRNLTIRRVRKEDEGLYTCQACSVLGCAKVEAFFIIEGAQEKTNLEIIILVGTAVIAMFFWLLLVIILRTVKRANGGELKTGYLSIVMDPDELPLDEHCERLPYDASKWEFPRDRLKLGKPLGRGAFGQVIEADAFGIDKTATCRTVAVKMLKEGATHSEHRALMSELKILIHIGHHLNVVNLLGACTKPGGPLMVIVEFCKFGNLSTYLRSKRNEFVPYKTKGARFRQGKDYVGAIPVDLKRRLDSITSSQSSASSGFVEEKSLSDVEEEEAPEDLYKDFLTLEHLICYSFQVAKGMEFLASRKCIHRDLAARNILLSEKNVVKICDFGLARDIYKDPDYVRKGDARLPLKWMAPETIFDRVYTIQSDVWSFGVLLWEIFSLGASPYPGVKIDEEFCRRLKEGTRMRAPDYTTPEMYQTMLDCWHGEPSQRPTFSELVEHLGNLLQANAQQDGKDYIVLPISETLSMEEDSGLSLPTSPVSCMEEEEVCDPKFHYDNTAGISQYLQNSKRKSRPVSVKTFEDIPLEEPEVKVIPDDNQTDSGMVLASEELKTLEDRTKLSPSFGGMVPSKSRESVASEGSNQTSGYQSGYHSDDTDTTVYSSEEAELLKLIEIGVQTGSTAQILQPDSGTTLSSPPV
row,SMILES,inhibition
1,COC(Cn1c(SC2CCC(C(=O)O)CC2O)nc(-c2ccc(F)cc2)c1-c1ccnc(NC(C)=O)c1)OC (stereo not given),< 50%
2,CC(=O)Nc1cc(-c2c(-c3ccc(F)cc3)nc(S/C=C\C(=O)O)n2C2CCCCC2)ccn1,< 50%

# Target: Fibroblast growth factor receptor 2 (Homo sapiens) (UniProt P21802)
# Experiment: Inhibition of FGFR2 (unknown origin) at 5.5 uM by Caliper Mobility Shift Assay
# Sequence of Fibroblast growth factor receptor 2 (Homo sapiens) (P21802 22-821 limits assumed): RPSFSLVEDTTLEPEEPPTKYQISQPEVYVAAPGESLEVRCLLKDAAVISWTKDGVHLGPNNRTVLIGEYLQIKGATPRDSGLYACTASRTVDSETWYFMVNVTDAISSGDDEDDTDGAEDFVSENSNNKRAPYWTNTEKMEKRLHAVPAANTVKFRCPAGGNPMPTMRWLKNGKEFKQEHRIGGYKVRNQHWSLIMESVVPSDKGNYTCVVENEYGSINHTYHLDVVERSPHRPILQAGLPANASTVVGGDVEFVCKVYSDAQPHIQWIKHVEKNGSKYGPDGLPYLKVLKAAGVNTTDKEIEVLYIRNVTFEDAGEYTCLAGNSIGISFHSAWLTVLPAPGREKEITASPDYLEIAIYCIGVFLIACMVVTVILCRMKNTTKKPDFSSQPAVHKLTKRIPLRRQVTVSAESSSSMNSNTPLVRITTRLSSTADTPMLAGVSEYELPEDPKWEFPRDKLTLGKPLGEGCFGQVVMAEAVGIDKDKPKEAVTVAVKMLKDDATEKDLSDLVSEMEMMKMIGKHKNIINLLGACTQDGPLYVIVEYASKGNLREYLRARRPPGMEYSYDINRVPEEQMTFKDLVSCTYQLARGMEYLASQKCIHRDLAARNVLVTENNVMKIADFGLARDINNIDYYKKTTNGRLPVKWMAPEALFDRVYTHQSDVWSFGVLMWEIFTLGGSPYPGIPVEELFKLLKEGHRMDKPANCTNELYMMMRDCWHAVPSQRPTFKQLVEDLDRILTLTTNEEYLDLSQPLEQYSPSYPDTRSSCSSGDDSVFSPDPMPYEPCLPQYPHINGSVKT
row,SMILES,inhibition
1,COC(Cn1c(SC2CCC(C(=O)O)CC2O)nc(-c2ccc(F)cc2)c1-c1ccnc(NC(C)=O)c1)OC (stereo not given),< 50%
2,CC(=O)Nc1cc(-c2c(-c3ccc(F)cc3)nc(S/C=C\C(=O)O)n2C2CCCCC2)ccn1,< 50%

# Target: Mitogen-activated protein kinase 8 (Homo sapiens) (UniProt P45983)
# Experiment: Inhibition of JNK1 (unknown origin) at 5.5 uM by Caliper Mobility Shift Assay
# Sequence of Mitogen-activated protein kinase 8 (Homo sapiens) (P45983 whole entry): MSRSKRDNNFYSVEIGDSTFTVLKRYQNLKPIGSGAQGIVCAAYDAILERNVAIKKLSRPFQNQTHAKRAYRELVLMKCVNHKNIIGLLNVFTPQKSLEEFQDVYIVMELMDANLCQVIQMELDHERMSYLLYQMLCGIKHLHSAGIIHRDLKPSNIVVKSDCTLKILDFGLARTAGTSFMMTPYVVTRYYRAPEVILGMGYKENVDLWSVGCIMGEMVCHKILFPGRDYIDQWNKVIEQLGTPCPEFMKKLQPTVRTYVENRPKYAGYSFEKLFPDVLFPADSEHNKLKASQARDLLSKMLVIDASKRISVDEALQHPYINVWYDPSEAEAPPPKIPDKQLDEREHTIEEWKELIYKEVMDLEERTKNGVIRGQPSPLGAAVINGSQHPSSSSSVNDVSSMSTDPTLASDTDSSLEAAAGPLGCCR
row,SMILES,inhibition
1,COC(Cn1c(SC2CCC(C(=O)O)CC2O)nc(-c2ccc(F)cc2)c1-c1ccnc(NC(C)=O)c1)OC (stereo not given),< 50%
2,CC(=O)Nc1cc(-c2c(-c3ccc(F)cc3)nc(S/C=C\C(=O)O)n2C2CCCCC2)ccn1,< 50%

# Target: Tyrosine-protein kinase JAK2 (Homo sapiens) (UniProt O60674)
# Experiment: Inhibition of JAK2 (unknown origin) at 5.5 uM by Caliper Mobility Shift Assay
row,SMILES,inhibition
1,COC(Cn1c(SC2CCC(C(=O)O)CC2O)nc(-c2ccc(F)cc2)c1-c1ccnc(NC(C)=O)c1)OC (stereo not given),< 50%
2,CC(=O)Nc1cc(-c2c(-c3ccc(F)cc3)nc(S/C=C\C(=O)O)n2C2CCCCC2)ccn1,< 50%
